Among the data in PubChem BioAssay (NCI) are TGI values, retold here.

Some test systems named below: A549 NSCLC; COLO 205 colon; HCC-2998 colon; HL-60(TB) leukemia; HOP-62 NSCLC; HOP-92 NSCLC; HT29 colon; KM12 colon; MCF7 breast; NCI/ADR-RES ovarian; OVCAR-3 ovarian; SF-295 CNS; SK-MEL-5 melanoma; SNB-19 CNS; SR leukemia; U251 CNS; RPMI-8226 leukemia.
Holding throughout (test): growth of human tumour cells (NCI), 48 h

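Values below derive from 48-hour exposures of cells grown in 96-well plates, with endpoints linearly interpolated between the two concentrations bracketing the appropriate inhibition level. At the TGI there is no net growth.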 Bounds are passed on as bounds.

As for `COc1cc(/C=C2\C(=O)N(Cc3ccccc3)C(c3ccccc3)S2(=O)=O)cc(OC)c1OC` (configuration not stated), the TGI with A549 NSCLC is greater than 100 µM; in the assay on COLO 205 colon, 94 µM; in the assay on HCC-2998 colon it was greater than 100 µM; in the assay with HL-60(TB) leukemia, 44.9 µM; with HOP-62 NSCLC it was greater than 100 µM; with HOP-92 NSCLC, greater than 100 µM. Moreover, the TGI with HT29 colon, with KM12 colon, with MCF7 breast, with NCI/ADR-RES ovarian, in the assay with OVCAR-3 ovarian and with SF-295 CNS was greater than 100 µM throughout. Besides, the TGI is 51.8 µM with SK-MEL-5 melanoma, greater than 100 µM in the assay on SNB-19 CNS, 65.5 µM in the assay on SR leukemia and greater than 100 µM in the assay with U251 CNS.
With `c1ccc(C2OCC(OC3CCCCO3)CO2)cc1` (configuration not stated), the TGI in the assay on A549 NSCLC, in the assay with COLO 205 colon, with HCC-2998 colon, in the assay with HL-60(TB) leukemia, in the assay on HOP-62 NSCLC and in the assay with HOP-92 NSCLC was greater than 100 µM throughout. Moreover, the TGI in the assay with HT29 colon, in the assay on MCF7 breast, with NCI/ADR-RES ovarian, with OVCAR-3 ovarian, in the assay on RPMI-8226 leukemia and in the assay with SF-295 CNS was greater than 100 µM each time. The TGI in the assay with SK-MEL-5 melanoma, in the assay on SNB-19 CNS, with SR leukemia and in the assay with U251 CNS was greater than 100 µM in each case.
Turning to `COc1ccc(C(=O)/C=C/c2cccnc2)cc1OC`, the TGI was determined as 27.7 µM with A549 NSCLC; 22.9 µM in the assay on COLO 205 colon; 6.01 µM in the assay on HL-60(TB) leukemia; 28.2 µM in the assay on HOP-62 NSCLC; 26.7 µM with HOP-92 NSCLC; 15.2 µM with HT29 colon. Further, the TGI was determined as 13 µM with MCF7 breast; 36.5 µM with NCI/ADR-RES ovarian; 11 µM in the assay on OVCAR-3 ovarian; 26.3 µM in the assay on SF-295 CNS; 27.4 µM in the assay with SK-MEL-5 melanoma; 27.6 µM in the assay with SNB-19 CNS. Further, the TGI in the assay on SR leukemia came out at 6.02 µM; in the assay on U251 CNS, 16.7 µM.
Regarding `CC(=O)O[C@H]1CCn2c3c(c(C)c21)C(=O)C(N1CC1)=C(C)C3=O`, the TGI in the assay on A549 NSCLC was 7.83 µM; in the assay with COLO 205 colon, greater than 10 µM; with HCC-2998 colon, greater than 10 µM; with HL-60(TB) leukemia, greater than 10 µM; in the assay with HOP-62 NSCLC, greater than 10 µM; in the assay on HT29 colon it was greater than 10 µM. For the same compound, the TGI in the assay with KM12 colon, in the assay with MCF7 breast, with NCI/ADR-RES ovarian, with OVCAR-3 ovarian, in the assay on RPMI-8226 leukemia and in the assay with SF-295 CNS was greater than 10 µM throughout. The TGI with SK-MEL-5 melanoma is 6.67 µM; in the assay on SNB-19 CNS, greater than 10 µM; in the assay with SR leukemia it was greater than 10 µM; in the assay with U251 CNS it was greater than 10 µM.
Regarding `CCN(CC)C(=S)N=Nc1c(O)[nH]c2ccccc12`, the TGI was determined as 11.9 µM in the assay on A549 NSCLC; 11.6 µM in the assay on COLO 205 colon; 3.7 µM in the assay with HL-60(TB) leukemia; 12.6 µM in the assay on HOP-62 NSCLC; 8.52 µM in the assay with HOP-92 NSCLC; 14.8 µM in the assay on HT29 colon. In addition, the TGI stood at 10.5 µM in the assay on KM12 colon; 2.37 µM in the assay on MCF7 breast; 0.759 µM in the assay with NCI/ADR-RES ovarian; 2.12 µM with OVCAR-3 ovarian; 4.07 µM with RPMI-8226 leukemia; 11.5 µM in the assay with SF-295 CNS. Moreover, the TGI in the assay on SK-MEL-5 melanoma was determined as 2.41 µM; in the assay with SNB-19 CNS it was 16 µM; with SR leukemia, 4.91 µM; in the assay on U251 CNS it was 13 µM.
As to `CC(C)(C)[Si](C)(C)OCCOCn1cc(F)c(=O)[nH]c1=O`, the TGI in the assay on A549 NSCLC, with COLO 205 colon, with HL-60(TB) leukemia, in the assay with HOP-62 NSCLC, in the assay with HT29 colon and in the assay on KM12 colon was greater than 100 µM in each case. In addition, the TGI with MCF7 breast, in the assay with NCI/ADR-RES ovarian, with OVCAR-3 ovarian, in the assay on RPMI-8226 leukemia, in the assay with SF-295 CNS and in the assay on SK-MEL-5 melanoma was greater than 100 µM in each case. For the same compound, the TGI in the assay with SNB-19 CNS, in the assay with SR leukemia and in the assay with U251 CNS was greater than 100 µM in each case.
As to `O=C(CCCN1CCC2(CC1)CC(=O)N(N1CCCCCC1)C2=O)c1ccc(F)cc1`, the TGI was greater than 100 µM with A549 NSCLC; greater than 100 µM in the assay on COLO 205 colon; greater than 100 µM with HL-60(TB) leukemia; greater than 100 µM in the assay with HOP-62 NSCLC; 33.8 µM with HT29 colon; greater than 100 µM with MCF7 breast. The TGI is 37.3 µM in the assay with NCI/ADR-RES ovarian; greater than 100 µM in the assay on OVCAR-3 ovarian; greater than 100 µM in the assay on RPMI-8226 leukemia; 63.2 µM in the assay on SF-295 CNS; greater than 100 µM with SK-MEL-5 melanoma; greater than 100 µM in the assay with SR leukemia. In addition, in the assay on U251 CNS, the TGI is greater than 100 µM.
`O=C(/C=C/c1ccc(Cl)cc1)c1cccs1`: the TGI with A549 NSCLC is 83.5 µM; in the assay on COLO 205 colon, 37.9 µM; in the assay on HCC-2998 colon it was 37.5 µM; in the assay on HL-60(TB) leukemia it was 29.8 µM; with HOP-62 NSCLC, 89.8 µM; in the assay with HT29 colon, greater than 100 µM. Moreover, the TGI came to 31.1 µM in the assay on KM12 colon; 15.8 µM in the assay on MCF7 breast; 74.4 µM in the assay on NCI/ADR-RES ovarian; 8.29 µM in the assay with RPMI-8226 leukemia; 38.5 µM in the assay on SF-295 CNS; 32.5 µM in the assay on SK-MEL-5 melanoma. Further, the figures for the TGI in the assay on SNB-19 CNS, with SR leukemia and with U251 CNS were 33.4 µM, 50.5 µM and 29.5 µM, respectively.
On to `N#Cc1[nH]c(=O)n(-c2cccc3ccccc23)c1N`, for which the TGI in the assay on A549 NSCLC, in the assay on COLO 205 colon, in the assay with HCC-2998 colon, with HL-60(TB) leukemia, in the assay on HOP-62 NSCLC and with HT29 colon was greater than 10 µM each time. For the same compound, the TGI in the assay on KM12 colon, in the assay with MCF7 breast, in the assay on NCI/ADR-RES ovarian, in the assay on OVCAR-3 ovarian, in the assay with RPMI-8226 leukemia and in the assay on SF-295 CNS was greater than 10 µM throughout. Moreover, the TGI in the assay on SK-MEL-5 melanoma, with SNB-19 CNS, in the assay with SR leukemia and in the assay on U251 CNS was greater than 10 µM in each case.
